# Measurements as given in patent publication US8273344B2, “Recombinant adeno-associated virus expressing human antisense gene CyP2J2 and its preparation methods” (priority 2004, dated 2012).
# “And” between values parts separate entries of the source, which are not always exact repeats. Equal values may be shown once.
# How the values were obtained:
# tumor = assay: Growth of tumor under EET blocker (FIG. 16); details: FIG. 16, 100 nmol/L
# four tumor cell lines = assay: Proliferation of four kinds of tumor cells in vitro; type: cell-based, human; details: FIG. 15, dose dependence
# Text: The epoxygenase metabolizes arachidonic acid to yield endogenous epoxyeicosatrienoic acids. Thus, the EETs concentration is increased indirectly. This can directly verity that the function of CYP epoxygenase for promoting proliferation of tumor cells.
# Akt, Bcl-2, Bcl-xL, Bax = type: cell-based
# transplantation tumor = assay: Growth of transplantation tumor under epoxygenase inhibitor (FIG. 17); type: in vivo; details: FIG. 17, without joint use of 5-fluorouracil
# [1] = system: Tca-8113, A549, Ncl-H446, and HepG2 cell lines; assay: Migration and invasion of tumor cells in modified Boyden chamber; type: cell-based, human; details: 5 h, P<0.01
# Experimental: The migration of epithelial cells in the modified Boyden chamber is measured using a conventional method. A polycarbonate filter membrane of […] is coated at 4° C. for 24 h using collagen IV (10 μg/mL) and Matrigel (11 μg/filter). The Tca-8113, A549, Ncl-H446, and HepG2 cell lines are washed with DMEM culture solution to 2×10^6/mL. 200 μL of DMEM containing 5% FBS is added to the low part of the Boyden chamber as a chemoattractant, and followed by covering a polycarbonate filter membrane. 800 μL of a cell suspension is added to the upper part of the Boyden chamber, cultured at 37° C. at 5% CO2 for 5 h. The device is disassembled and the membrane is collected. The cells are cleaned off, and the membrane is fixed with carbinol and stained with hematoxylin. Five fields of vision per membrane are observed under a 200× microscope. Subsequently, the number of migrating cells is calculated.
# [2] = system: four different kinds of tumor cell lines; assay: TNFα-induced apoptosis of tumor cells (DNA ladder, acridine orange staining, flow cytometry); type: cell-based, human; details: for total apoptotic rate: flow cytometry; for number of apoptotic cells (acridine orange / ethidium bromide staining): fluorescent microscope, vs control group
# Experimental: A week later, TNFα is used to induce the apoptosis of tumor cells. The apoptosis is measured using different methods. […] Thus, the EETs and epoxygenase gene resist the apoptosis of cancer cells induced by TNF-α. After PI staining and Annexin V-FITC/PI dobule staining separatively, the total apoptosis rate and early apoptosis rate of cells are calculated using flow cytometry.
# [3] = EET pretreatment experiment, control 28.15%±4.7
Compound,growth of tumor (tumor),growth of tumor cells (four tumor cell lines),"expression of antiapoptosis protein Bcl-2 and Bcl-xL (Akt, Bcl-2, Bcl-xL, Bax)","expression of apoptosis protein Bax (Akt, Bcl-2, Bcl-xL, Bax)","phosphorylation of Akt (Akt, Bcl-2, Bcl-xL, Bax)",growth of transplantation tumor (transplantation tumor),ability of migrating of cells relative to basal state [1],"total apoptotic rate [2, 3]",number of apoptotic cells (acridine orange / ethidium bromide staining) [2],apoptosis of tumor cells (in words) ([2]; induced by TNF-α),"total apoptotic rate ([2]; transfection experiment, control 20.15%±3.5)",formation of DNA ladder ([2]; TNFα-induced apoptosis)
"CCCCCC1OC1C/C=C\C/C=C\C/C=C\CCCC(=O)O (centres unmarked) [14, 15-EET]",can inhibit,–,–,–,–,–,–,–,–,–,–,–
C#CCCCCCCCCCCCCCCCC(=O)O [17-ODYA],–,dose-dependently inhibits,completely opposite effect,completely opposite effect,completely opposite effect,can inhibit,about 60 % of basal state,52.65%±3.6,large,promotes significantly,33.51%±6.1,–
epoxyeicosatrienoic acids [EETs],–,–,increase,decrease,promote,–,–,14.94%±3.5 and 11.72%±4.2 and 12.89%±2.7,significantly less,–,–,decrease significantly
